Read-outs that look alike come from different tables or passages of the source.
Target: T1, F508delCFTR (Homo sapiens, UniProt P13569, DEL508-508)
T1 construct: expressed in transfected cells; host or cells: CFBE41o- human lung-derived epithelial cells (CFBE4lo-F508delCFTR-HRP), doxycycline-inducible
Assay: Cell Surface Expression-Horse Radish Peroxidase (CSE-HRP) Assay;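 as to Maximum % activity (with co-corrector): co-corrector and positive control are both the same reference corrector at 2 µM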;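 as to Maximum % activity (without co-corrector): percent of the 2 µM on-plate positive control corrector response above DMSO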
Type: cell-based
Details: for Emax: read-out: Maximum % activity (without co-corrector)

[1] = test compound without co-corrector, maximum at any tested concentration, normalized to on-plate positive control
[2] = test compound without co-corrector, read-out: EC50 (without co-corrector)
[3] = with co-corrector (2 μM of 3-[(2R,4R)-4-({[1-(2,2-difluoro-1,3-benzodioxol-5-yl)cyclopropyl]carbonyl}amino)-7-methoxy-3,4-dihydro-2H-chromen-2-yl]benzoic acid), maximum at any tested concentration, normalized to on-plate positive control
[4] = with co-corrector (2 μM of 3-[(2R,4R)-4-({[1-(2,2-difluoro-1,3-benzodioxol-5-yl)cyclopropyl]carbonyl}amino)-7-methoxy-3,4-dihydro-2H-chromen-2-yl]benzoic acid), read-out: EC50 (with co-corrector)

T1 sequence (P13569 with tags, fused parts or gaps DEL508-508): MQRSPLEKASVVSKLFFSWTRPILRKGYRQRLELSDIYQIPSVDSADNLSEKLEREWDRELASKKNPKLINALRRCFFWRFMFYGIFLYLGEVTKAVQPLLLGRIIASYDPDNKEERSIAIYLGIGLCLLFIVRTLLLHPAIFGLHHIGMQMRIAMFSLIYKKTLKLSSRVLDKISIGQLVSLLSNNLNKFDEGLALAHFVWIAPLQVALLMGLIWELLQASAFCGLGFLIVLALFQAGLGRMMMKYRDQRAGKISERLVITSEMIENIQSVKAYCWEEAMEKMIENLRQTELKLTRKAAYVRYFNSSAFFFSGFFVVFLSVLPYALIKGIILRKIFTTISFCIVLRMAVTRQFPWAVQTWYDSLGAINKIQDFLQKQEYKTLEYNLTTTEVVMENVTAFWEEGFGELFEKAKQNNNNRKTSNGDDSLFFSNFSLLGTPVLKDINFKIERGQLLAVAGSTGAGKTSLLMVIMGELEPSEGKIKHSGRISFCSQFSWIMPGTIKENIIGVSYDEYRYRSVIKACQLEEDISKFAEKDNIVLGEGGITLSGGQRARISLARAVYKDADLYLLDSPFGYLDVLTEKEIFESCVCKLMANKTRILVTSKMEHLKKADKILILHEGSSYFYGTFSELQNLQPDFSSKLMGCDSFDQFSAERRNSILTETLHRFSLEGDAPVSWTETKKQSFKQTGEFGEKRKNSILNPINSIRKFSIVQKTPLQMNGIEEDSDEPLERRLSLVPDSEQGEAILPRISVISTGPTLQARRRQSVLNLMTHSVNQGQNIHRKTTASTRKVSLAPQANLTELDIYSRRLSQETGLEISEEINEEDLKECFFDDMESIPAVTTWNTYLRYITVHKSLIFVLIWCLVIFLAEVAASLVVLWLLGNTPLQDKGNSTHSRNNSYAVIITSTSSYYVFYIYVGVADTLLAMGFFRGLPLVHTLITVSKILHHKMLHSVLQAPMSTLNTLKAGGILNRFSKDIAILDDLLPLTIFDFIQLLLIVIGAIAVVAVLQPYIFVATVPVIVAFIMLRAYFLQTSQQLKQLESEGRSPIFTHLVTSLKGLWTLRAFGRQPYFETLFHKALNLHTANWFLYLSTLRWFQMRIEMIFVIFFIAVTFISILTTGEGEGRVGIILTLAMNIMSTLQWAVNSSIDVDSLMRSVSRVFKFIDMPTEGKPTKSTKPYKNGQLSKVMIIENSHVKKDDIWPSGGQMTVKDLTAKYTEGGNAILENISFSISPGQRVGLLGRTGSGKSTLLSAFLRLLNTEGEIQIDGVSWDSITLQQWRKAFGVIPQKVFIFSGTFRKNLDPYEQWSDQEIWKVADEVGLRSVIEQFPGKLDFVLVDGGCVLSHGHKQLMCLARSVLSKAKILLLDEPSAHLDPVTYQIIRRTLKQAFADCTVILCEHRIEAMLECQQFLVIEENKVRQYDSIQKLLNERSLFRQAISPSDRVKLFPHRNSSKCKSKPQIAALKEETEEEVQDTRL

SMILES	Emax [1] [%]	EC50 [2] [nM]	Maximum % activity (with co-corrector) [3]	EC50 [4] [nM]	Maximum % activity (without co-corrector) [1]
COc1ccc(C(C)(C)C)cc1CN[C@H]1[C@H](C(C)(C)C)[C@@H](C(=O)O)N(C(=O)c2ccc(Oc3ccccn3)cc2)[C@H]1c1cccnc1N(C)C [II-466]	> 200	< 1000	+++ (≥350)	< 1000	
COc1ccc(C(C)(C)C)cc1CN[C@H]1[C@H](C(C)(C)C)[C@@H](C(=O)O)N(C(=O)c2ccc(OC(F)(F)F)cc2)[C@H]1c1cccnc1N(C)C [II-467]	100 to 200	< 1000	+++ (≥350)	< 1000	
COc1ccc(C(C)(C)C)cc1CN[C@H]1[C@H](C(C)(C)C)[C@@H](C(=O)O)N(C(=O)C2CCC(F)(F)CC2)[C@H]1c1cccnc1N(C)C [II-468]	100 to 200	1000 to 10000	+++ (≥350)	1000 to 10000	
COc1ccc(C(C)(C)C)cc1CN[C@H]1[C@H](C(C)(C)C)[C@@H](C(=O)O)N(C(=O)C2CC(C)CC(C)C2)[C@H]1c1cccnc1N(C)C (stereo partly shown) [II-469]	100 to 200	1000 to 10000	+++ (≥350)	1000 to 10000	
COc1cc(C(F)(F)F)ccc1CN[C@H]1[C@H](C23CC(C2)C3)[C@@H](C(=O)O)N(C(=O)C2CCCCC2)[C@H]1c1ccccc1 [II-470]	100 to 200	1000 to 10000	+++ (≥350)	< 1000	
COc1ncc(C2CCC2)cc1CN[C@H]1[C@H](C(C)(C)C)[C@@H](C(=O)O)N(C(=O)C2COc3ccccc3O2)[C@H]1c1ccccc1 (stereo partly shown) [II-474]	100 to 200	1000 to 10000	+++ (≥350)	1000 to 10000	
COc1ncc(C2CCC2)cc1CN[C@H]1[C@H](C(C)(C)C)[C@@H](C(=O)O)N(C(=O)c2ccc3c(c2)OCCO3)[C@H]1c1ccccc1 [II-475]	< 100	1000 to 10000	++ (≥150 and <350)	1000 to 10000	
COc1ncc(C2CCC2)cc1CN[C@H]1[C@H](C(C)(C)C)[C@@H](C(=O)O)N(C(=O)C2CCc3cc(F)ccc3O2)[C@H]1c1ccccc1 (stereo partly shown) [II-476]	100 to 200	1000 to 10000	+++ (≥350)	1000 to 10000	
COc1ncc(C(F)(F)F)cc1CN[C@H]1[C@H](C(C)(C)C)[C@@H](C(=O)O)N(C(=O)[C@H]2CCCCO2)[C@H]1c1cccnc1N(C)C [II-478]	< 100	1000 to 10000	++ (≥150 and <350)	1000 to 10000	
COc1ccc(C23CC(C2)C3)cc1CN[C@H]1[C@H](C(C)(C)C)[C@@H](C(=O)O)N(C(=O)[C@@H]2CCC[C@@H](OC)C2)[C@H]1c1ccccc1 [II-479]	> 200	1000 to 10000	+++ (≥350)	1000 to 10000	
COc1ccc(C(C)(C)C)cc1CN[C@H]1[C@H](C(C)(C)C)[C@@H](C(=O)O)N(C(=O)C2CCc3cc(F)ccc3O2)[C@H]1c1cccnc1N(C)C (stereo partly shown) [II-482]		1000 to 10000	+++ (≥350)	1000 to 10000	++ (≥100 and <200)
COc1ncc(C(F)(F)F)cc1N[C@H]1[C@H](C(C)(C)C)[C@@H](C(=O)O)N(C(=O)C2C3CCCC32)[C@H]1c1cccnc1N(C)C (stereo partly shown) [II-483]	< 100	1000 to 10000	++ (≥150 and <350)	1000 to 10000	
COc1ccc(C23CC(C2)C3)cc1CN[C@H]1[C@H](C(C)(C)C)[C@@H](C(=O)O)N(C(=O)C2CCCCC2)[C@H]1c1ccccc1OC [II-484]	100 to 200	< 1000	+++ (≥350)	< 1000	
COc1ncc(C(F)(F)F)cc1N[C@H]1[C@H](C(C)(C)C)[C@@H](C(=O)O)N(C(=O)[C@@H]2CCCC[C@H]2C(F)(F)F)[C@H]1c1cccnc1N(C)C [II-485]	< 100	1000 to 10000	++ (≥150 and <350)	1000 to 10000	
COc1ccc(C23CC(C2)C3)cc1CN[C@H]1[C@H](C(C)(C)C)[C@@H](C(=O)O)N(C(=O)C2CCCCC2)[C@H]1c1cccnc1OC [II-486]	> 200	1000 to 10000	+++ (≥350)	< 1000	
COc1cc(C(F)(F)F)ccc1CN[C@H]1[C@H](C(C)(C)C)[C@@H](C(=O)O)N(C(=O)OC(C)C)[C@H]1c1ccccc1 [II-487]	> 200	1000 to 10000	+++ (≥350)	1000 to 10000	
COc1ncc(C(F)(F)F)cc1N[C@H]1[C@H](C(C)(C)C)[C@@H](C(=O)O)N(C(=O)C2CCCC(F)(F)C2)[C@H]1c1cccnc1N(C)C (stereo partly shown) [II-488]	< 100	1000 to 10000	++ (≥150 and <350)	1000 to 10000	
COc1ncc(C2CCC2)cc1CN[C@H]1[C@H](C(C)(C)C)[C@@H](C(=O)O)N(C(=O)C2CCCCO2)[C@H]1c1cccnc1N(C)C (stereo partly shown) [II-491]	> 200	1000 to 10000	+++ (≥350)	1000 to 10000	
COc1ncc(C2CCC2)cc1CN[C@H]1[C@H](C(C)(C)C)[C@@H](C(=O)O)N(C(=O)C2CCCC(F)(F)C2)[C@H]1c1ccccc1 (stereo partly shown) [II-492]	> 200	1000 to 10000	+++ (≥350)	< 1000	
COc1ccc(C2(C)CCC2)cc1CN[C@H]1[C@H](C(C)(C)C)[C@@H](C(=O)O)N(C(=O)[C@H]2CCCCO2)[C@H]1c1cccnc1N(C)C [II-493]	> 200	1000 to 10000	+++ (≥350)	1000 to 10000	
COc1cc(C(F)(F)F)ccc1CN[C@H]1[C@H](C(C)(C)C)[C@@H](C(=O)O)N(C(=O)[C@H]2CCCCO2)[C@H]1c1cccnc1N(C)C [II-494]	< 100	1000 to 10000	++ (≥150 and <350)	1000 to 10000	
COc1cc(C(F)(F)F)ccc1CN[C@H]1[C@H](C(C)(C)C)[C@@H](C(=O)O)N(C(=O)[C@@H]2CCCCO2)[C@H]1c1cccnc1N(C)C [II-495]	> 200	1000 to 10000	+++ (≥350)	1000 to 10000	
COc1nnc(C2CCC2)cc1CN[C@H]1[C@H](C(C)(C)C)[C@@H](C(=O)O)N(C(=O)C2CCCCC2)[C@H]1c1ccccc1 [II-496]	< 100	1000 to 10000	++ (≥150 and <350)	1000 to 10000	
COc1ccc(C(C)(C)C)cc1CN[C@H]1[C@H](C(C)(C)C)[C@@H](C(=O)O)N(C(=O)C2(c3cccc(Cl)c3)COC2)[C@H]1c1ccccc1 [II-497]	< 100	1000 to 10000	++ (≥150 and <350)	1000 to 10000	
COc1ccc(C(C)(C)C)cc1CN[C@H]1[C@H](C(C)(C)C)[C@@H](C(=O)O)N(C(=O)C23CC(F)(C2)C3)[C@H]1c1ccccc1 [II-498]	100 to 200	1000 to 10000	+++ (≥350)	1000 to 10000	
CC(C)(C)[C@H]1[C@H](NCC2(c3ccc4c(c3)OC(F)(F)O4)CC2)[C@H](c2ccccc2)N(C(=O)C2CCCCC2)[C@@H]1C(=O)O [II-499]	100 to 200	1000 to 10000	+++ (≥350)	1000 to 10000	
COc1ccc(C23CC(C2)C3)cc1CN[C@H]1[C@H](C(C)(C)OC)[C@@H](C(=O)O)N(C(=O)OC(C)C)[C@H]1c1cccnc1N(C)C [II-501]	> 200	1000 to 10000	+++ (≥350)	1000 to 10000	
Cc1cc(C(F)(F)F)cc(N[C@H]2[C@H](C(C)(C)C)[C@@H](C(=O)O)N(C(=O)C3CCCCC3C(F)(F)F)[C@H]2c2cccnc2N(C)C)n1 (stereo partly shown) [II-502]	< 100	1000 to 10000	++ (≥150 and <350)	1000 to 10000	

From patent US20180099931A1 (AbbVie S.à.r.l., priority 2016, published 2018)
